Reference: patent US7629318B2, “Immunosuppressant compounds, methods and uses related thereto” (priority 2002, dated 2009)
pIC50: −log10 of the molar value. Square brackets hold non-standard residues; d marks the D form. Peptide text beside a SMILES is read from it. * marks the point of attachment. Tic = O=C(O)[C@@H]1Cc2ccccc2CN1; Cha = N[C@@H](CC1CCCCC1)C(=O)O; NHPhenethyl = c1ccc(CCN*)cc1; Nle = CCCC[C@H](N)C(=O)O

What was measured:
[1] = Stability of compounds in mouse blood plasma; format: in vitro ADME
Method: (§1) The stability of the peptidomimetic compounds was determined in rat (Charles River Laboratories, Sulzfeld), mouse (Charles River Laboratories, Sulzfeld) and human (Bayerisches Rotes Kreuz, München) blood plasma (E. R. Garrett and M. R. Gardner, J Pharmaceutical Sciences 71 (1982) 14-25).
(§2) Compound stock solutions were diluted into blood plasma to give a final compound concentration of 5 μM and the mixtures were incubated at 37° C. At 0, 6 and 24 hours 1 ml samples were drawn and the plasma proteins were precipitated by the addition of 3 ml acetonitrile p.a. and whirlmixing. The precipitate was pelleted by centrifugation at 2000 g for 5 minutes. The supernatant was evaporated off to dryness and the residue was reconstituted in 400 μl 50% acetonitrile, 0.1% TFA in water.
(§3) PBS controls were prepared for unstable compounds accordingly.

[2] = target: DR1 (DRA1*0101 DRB1*0101) (Homo sapiens, UniProt P01903+P01911, A100R/D57E/F55L/F60I/F76Y/I96L/L162R/M171V/P40L/Q125E/R42F/V115G/Y59C); assay: Competitive binding to MHC-II protein DR1; details: Protein binding IC50 (nM) 0101, 0101
Method: (§4) Interaction mixtures lacking the peptidomimetic compound and both peptide mimetic compound and MHC-II were used as positive and negative controls, respectively. All interaction mixtures were set up in duplicates and were incubated for 16 hours at room temperature.
(§5) After washing with PBS, 60 μl of the MHC-II-compound interaction mixtures were transferred from the interaction plate to the appropriate wells of the capture plate and incubated for 2 h at 4° C. The wells were washed six times with 200 μl/well of cooled (4 to 8° C.) 1×DELFIA wash (Wallac-ADL-GmbH, Freiburg), incubated with 100 μl of cooled Europium-streptavidin conjugate (Wallac-ADL-GmbH, Freiburg; diluted 1/1000 with DELFIA assay buffer) for 30 minutes at 4° C., again washed six times with cooled 1×DELFIA wash and, finally, incubated with 200 μl cooled DELFIA enhancement solution (Wallac-ADL-GmbH, Freiburg) for one hour at room temperature before reading the time-resolved europium fluorescence at λex Eu^3+: 340 nm and λem Eu^3+: 613 (615) nm (Wallac Victor^2 1420 Multilabel Counter, Wallac-ADL-GmbH, Freiburg).

[3] = target: Cathepsin B1 (EC 3.4.22.1 from bovine spleen) (Bos taurus, UniProt P07688); details: Cathepsin B, 4 h
[4] = test system: T cell activation from 0404(DR14) chimeric MHCII-mice; assay: In vivo inhibition of T cell activation by co-immunisation, DR14 mice immunised with OVA; parameters: species or system mouse; % Reduction of response to PPD(OVA): concentration or dose not given beside the values; details: for % Reduction of response to OVA: DR14 mice co-immunised with OVA plus compound, mean % inhibition from the control over 3 concentrations of antigen (6.7, 20 and 60 ug); for % Reduction of response to PPD(OVA): specificity control: response to PPD in the same cell pool, OVA co-immunised mice
From the text: Mouse strains DR4 and DR14 carry chimeric MHC-II transgenes that encode the N-terminal domains of the respective DR molecules (forming the peptide binding site) and the remaining (2nd extracellular domains, transmembrane and intracytoplasmic domains) of the murine class II molecule I Ed. These strains are deficient of other murine class II, and thus, all helper T cell responses are triggered by peptides presented in the respective human MHC-II binding site. As an initial in vivo test of subject inhibitors designed to bind to DR, DR-transgenic mice were co-immunized with a pre-defined dose of protein antigen and different amounts of the compound antagonist to be tested. In this set-up, both antigen and compound were emulsified together in complete Freund's adjuvant (CFA), and thus, a direct competition between the two components for presentation by DR was tested. Readout of the assay is ex vivo antigen-specific activation of T cells from regional lymph nodes explanted 9 days after co-immunization. In a typical experiment, antigen dose-response was investigated, and the curves from mice immunized with antigen were compared to those from mice co-immunized with antigen+compound. The dose response curves were generated using lymph node cells pooled at equal numbers from 2-3 mice per experimental group. The experimental system also permits assessment of inherent antigenicity of the compound antagonist. This was done by setting up a dose-response study from the same cell pool using different concentrations of the compund under investigation instead of the antigen. As a specificity control, the response to Purified Protein Derivative (PPD), the major protein component of CFA, was tested in the same cell pool.
All Gpg conataining compounds have significant immunosupressive properties in one or both of the in-vivo models. Gpg-containing compounds also show improved activity or improved specificity over the Arg-containing equivilent. Further, compounds according to Formula I show activity in this assay.
Compounds of the invention were injected as an Emulsion prepared using CFA (Bacto Adjuvant Complete H37 Ra, Difco, Order-No. 3113-60); proteins 10 mg/ml in PBS, inhibitors 5 μM in 10% DMSO. CFA, PBS, antigen, and inhibitor were placed in the barrel of a 5-ml syringe (total volume not more than 1 mL). The mixture was sonicated at an amplitude less than 40% (30-35%) for two separated 15 s periods. The emulsion should seem to be hard and not liquid at this point. A drop of emulsion placed on the surface of water should not melt. The resulting emulsion was pushed through the needle into a 1 ml syringe with a needle (Gr.18, 26G×1″), and air bubbles were removed. Mice were co-immunized with 50 μg protein and 210 nM compound antagonist in final 100 μl emulsion into the tail base. Antigen+Compound and CFA are mixed 1:1 vol/vol. The best results are obtained using DR 4 mice immunised with HEL and DR 14 mice immunized with OVA.
Mice were injected at the tail-base as follows: Holding the tail of a mouse with thumb and middle finger, the index finger was placed under the base of the mouse's tail. The needle of the syringe was inserted about 1.5 cm from the tail base (hairy end) under the skin and pushed about 1 cm into the tail. 100 μl emulsion was injected into the mouse. After 9 days, mice were killed and lymph nodes removed.
The inhibitory effect of the candidate compounds on T-cell activation was tested using T-cells and antigen-presenting cells isolated from the lymph nodes of chimeric DR4-IE transgenic mice (Taconic, USA) previously co-immunized with hen egg lysozyme plus compound, or DR14-IE transgenic mice co-immunized with ovalbumin plus compound according to standard procedures (Adorini et al., 1988, Mueller et al., 1990; Current Protocols in Immunology, Vol. 2, 7.21; Ito et al., 1996). […]

[5] = Stability of compounds in human blood plasma; format: in vitro ADME
Method: as §1, §2, §3

[6] = target: DR4Dw4 (DRA1*0101 DRB1*0401) (Homo sapiens, UniProt P01903+P01911, A100K/A169T/F76Y/I96L/K127E/L162R/M171V/N62H/P40V/Q125Y/R42H/S133A/S149N/S66Y/V115G/V209L/W38E); assay: Competitive binding to MHC-II protein DR4Dw4
Method: as §4, §5

[7] = Stability of compounds in rat blood plasma; format: in vitro ADME
Method: as §1, §2, §3

[8] = test system: T-cell proliferation, lymph node cells of chimeric 0401-IE transgenic mice; details: DR4-LN
Method: The compounds were tested as follows to inhibit the proliferative T cell response of antigen-primed lymph node cells from mice carrying a chimeric mouse-human class II transgene with an RA-associated peptide binding site, and lack murine class II molecules (Muller et al., 1990; Woods et al., 1994; Current Protocols in Immunology, Vol. 2, 7.21; Ito et al., 1996). Here, the immunization takes place in vivo, but the inhibition and readout are ex vivo. […] These mice lack murine MHC class II, and thus, all Th responses are channelled through a single human RA-associated MHC class II molecule (Ito et al. 1996). These transgenic mice represent a model for testing human class II antagonists.
1.5×10^5 cells are incubated in 0.2 ml wells of 96-well tissue culture plates in the presence of ovalbumin (30 μg per well—half-maximal stimulatory concentration) and a dilution series of the compound under test (from around 0.1 to 200 uM) in serum free HL-1 medium containing 2 mM L-glutamine and 0.1 g/l Kanamycin for three days. Antigen specific proliferation is measured by 3H-methyl-thymidine (1 μCi/well) incorporation during the last 16 h of culture (Falcioni et al., 1999). Cells are harvested, and 3H incorporation measured using a scintillation counter (TopCount, Wallac Finland).

[9] = target: DR4Dw14 (DRA1*0101 DRB1*0404) (Homo sapiens, UniProt P01903+P01911, A100R/A169T/F76Y/I96L/K127E/L162R/M171V/N62H/P40V/Q125Y/R42H/S133A/S149N/S66Y/V209L/W38E); assay: Competitive binding to MHC-II protein DR4Dw14; details: 0404; read-out: Protein binding IC50 (nM) 0404
Method: as §4, §5

CCCC[C@H](NC(=O)[C@@H]1Cc2ccccc2CN1C(=O)[C@H](CCCNC(=N)N)NC(=O)[C@H](CC1CCCCC1)NC(C)=O)C(=O)NCCc1ccccc1 [Compound P82, Ac-Cha-Arg-Tic-Nle-N(H)CH2CH2Ph] (Ac-[Cha]R[Tic][Nle]-NHPhenethyl)
Stability (Arbitrary units) Mouse 6 h [1]: 79 Arbitrary units
Stability (Arbitrary units) Mouse 24 h [1]: 31 Arbitrary units
IC50 [2]: 3100 nM
Stability (Arbitrary units) Cath B 4 h [3]: 105 Arbitrary units
% Reduction of response to OVA [4]: 25%
% Reduction of response to PPD(OVA) [4]: 5%
Stability (Arbitrary units) Human 6 h [5]: 94 Arbitrary units
Stability (Arbitrary units) Human 24 h [5]: 72 Arbitrary units
pIC50 [6]: 4.74
Stability (Arbitrary units) Rat 6 h [7]: 65 Arbitrary units
Immunsupressive assays DR4-LN (Max) % Inhibition ([8]; maximal inhibition): 100%
pIC50 ([8]; read-out: Immunsupressive assays DR4-LN (IC50)): 4.57
IC50 [9]: 14000 nM

Ac-Hfe-Gpg-Tic-Nle-βPhPro-[S(oxaz)L]-NMe2 [Compound P57]
% Reduction of response to OVA [4]: 52.6%
% Reduction of response to PPD(OVA) [4]: 52.4%
